We go through 25 molecules from US20160326142A1, “PYRAZOLE CARBOXAMIDE COMPOUNDS, COMPOSITIONS AND METHODS OF USE” (Genentech, Inc., priority 2012, published 2016).

Where only a bound is given, the exact number is not on record here.

What is called Ki is a dissociation constant, usually derived from enzyme kinetics or from competition with a known ligand. High values mean lower affinity, low ones higher affinity.

In the assay the target is T1, ITK (Homo sapiens, UniProt Q08881).
T1 construct: purchased Invitrogen PV3875
T1 sequence (Q08881 1-620): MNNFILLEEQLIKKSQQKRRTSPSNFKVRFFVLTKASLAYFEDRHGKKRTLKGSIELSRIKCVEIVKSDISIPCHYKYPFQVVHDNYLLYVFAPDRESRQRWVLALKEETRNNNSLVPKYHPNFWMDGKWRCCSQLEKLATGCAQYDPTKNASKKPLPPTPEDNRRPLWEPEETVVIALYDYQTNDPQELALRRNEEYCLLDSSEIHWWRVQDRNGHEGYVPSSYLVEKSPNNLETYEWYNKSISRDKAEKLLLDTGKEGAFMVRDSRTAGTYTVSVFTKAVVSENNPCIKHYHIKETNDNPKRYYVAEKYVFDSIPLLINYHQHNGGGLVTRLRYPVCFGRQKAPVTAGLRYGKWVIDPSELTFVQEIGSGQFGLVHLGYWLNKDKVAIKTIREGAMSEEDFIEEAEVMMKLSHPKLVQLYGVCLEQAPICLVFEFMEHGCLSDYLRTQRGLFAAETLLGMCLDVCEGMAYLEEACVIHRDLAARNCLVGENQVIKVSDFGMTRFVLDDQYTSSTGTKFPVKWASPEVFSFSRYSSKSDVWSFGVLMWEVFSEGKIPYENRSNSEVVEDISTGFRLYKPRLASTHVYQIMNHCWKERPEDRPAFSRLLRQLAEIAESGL
The assay can be described thus: ITK enzyme assay (Caliper or LCMS peptide phosphorylation). The format is biochemical. The following applies: purified ITK (Invitrogen PV3875), 20 μM ATP, Ki by Morrison's quadratic equation. A digest of the protocol:
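Purified human ITK peptide phosphorylation, quenched with EDTA (50 mM final) for Caliper LabChip separation or TCA (5% v/v final) for UPLC-MS/MS MRM quantification. Ki derived via Morrison tight-binding equation, corrected for competitive inhibition using ATP concentration relative to Km,app.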
Molecule `CCn1cc(C(C)n2cc(NC(=O)c3n[nH]c4c3CCC(C)(C)C4)cn2)cn1` (single isomer, unassigned) [Example 100a, N-(1-(1-(1-ethyl-1H-pyrazol-4-yl)ethyl)-1H-pyrazol-4-yl)-6,6-dimethyl-4,5,6,7-tetrahydro-1H-indazole-3-carboxamide] had a Ki of 17 nM.

For `CC(C1CCOCC1)n1cc(NC(=O)c2n[nH]c3c2CCC(C)(C)C3)cn1` (single isomer, unassigned) [Example 78a, 6,6-dimethyl-N-(1-(1-(tetrahydro-2H-pyran-4-yl)ethyl)-1H-pyrazol-4-yl)-4,5,6,7-tetrahydro-1H-indazole-3-carboxamide], the Ki is 26 nM.

As for `CC12Cc3[nH]nc(C(=O)Nc4cnn(C(c5ccccc5)C5CCCCS5(=O)=O)c4)c3CC1C2` (single isomer, unassigned) [Example 143d, N-(1-((1,1-dioxidotetrahydro-2H-thiopyran-2-yl)(phenyl)methyl)-1H-pyrazol-4-yl)-5a-methyl-1,4,4a,5,5a,6-hexahydrocyclopropa[f]indazole-3-carboxamide], the inhibition constant Ki is under 0.1 nM.

`CC12Cc3[nH]nc(C(=O)Nc4cnn(C(CS(C)(=O)=O)c5cccnc5)c4)c3CC1C2` (single isomer, unassigned) [Example 93b, 5a-methyl-N-(1-(2-(methylsulfonyl)-1-(pyridin-3-yl)ethyl)-1H-pyrazol-4-yl)-1,4,4a,5,5a,6-hexahydrocyclopropa[f]indazole-3-carboxamide] came in with an inhibitory constant (Ki) of 1 nM.

In turn, `CC1(C)CCc2c(C(=O)Nc3cnn(C4COCC4c4ccccc4)c3)n[nH]c2C1` (single isomer, unassigned) [Example 132b, 6,6-dimethyl-N-(1-(4-phenyltetrahydrofuran-3-yl)-1H-pyrazol-4-yl)-4,5,6,7-tetrahydro-1H-indazole-3-carboxamide] came in with a Ki of 10 nM.

Turning to `CC(c1nccs1)n1cc(NC(=O)c2n[nH]c3c2CCC(C)(C)C3)cn1` (single isomer, unassigned) [Example 92a, 6,6-dimethyl-N-(1-(1-(thiazol-2-yl)ethyl)-1H-pyrazol-4-yl)-4,5,6,7-tetrahydro-1H-indazole-3-carboxamide], the affinity corresponds to a Ki of 7 nM.

For `CC1(C)CCc2c(C(=O)Nc3cnn(C(c4cccc(S(C)(=O)=O)c4)C4CCOC4)c3)n[nH]c2C1` (single isomer, unassigned) [Example 126c, 6,6-dimethyl-N-(1-((3-(methylsulfonyl)phenyl)(tetrahydrofuran-3-yl)methyl)-1H-pyrazol-4-yl)-4,5,6,7-tetrahydro-1H-indazole-3-carboxamide], the affinity, expressed as Ki, was 4 nM.

In the case of `CC(c1cscn1)n1cc(NC(=O)c2n[nH]c3c2CCC(C)(C)C3)cn1` (single isomer, unassigned) [Example 84a, 6,6-dimethyl-N-(1-(1-(thiazol-4-yl)ethyl)-1H-pyrazol-4-yl)-4,5,6,7-tetrahydro-1H-indazole-3-carboxamide], the Ki is 46 nM.

The molecule `N#Cc1cccc(Cn2cc(NC(=O)c3n[nH]c4c3CC(c3cn[nH]c3)CC4)cn2)c1` (single isomer, unassigned) [Example 2a, N-(1-(3-cyanobenzyl)-1H-pyrazol-4-yl)-5-(1H-pyrazol-4-yl)-4,5,6,7-tetrahydro-1H-indazole-3-carboxamide] returned a Ki of 68 nM.

Take `CC(c1cncs1)n1cc(NC(=O)c2n[nH]c3c2CCC(C)(C)C3)cn1` (single isomer, unassigned) [Example 98b, 6,6-dimethyl-N-(1-(1-(thiazol-5-yl)ethyl)-1H-pyrazol-4-yl)-4,5,6,7-tetrahydro-1H-indazole-3-carboxamide]: the Ki was found to be 2 nM.

As for `CC1(C)CCc2c(C(=O)Nc3cnn(C(c4cccnc4)C4CCCCS4(=O)=O)c3)n[nH]c2C1` (single isomer, unassigned) [Example 144a, N-(1-((1,1-dioxidotetrahydro-2H-thiopyran-2-yl)(pyridin-3-yl)methyl)-1H-pyrazol-4-yl)-6,6-dimethyl-4,5,6,7-tetrahydro-1H-indazole-3-carboxamide], the Ki was found to be 0.1 nM.

As for `CC12Cc3[nH]nc(C(=O)Nc4cnn(C(c5ccccc5)C5CC[S+]([O-])CC5)c4)c3CC1C2` (single isomer, unassigned) [Example 120b, 5a-methyl-N-(1-((1-oxidotetrahydro-2H-thiopyran-4-yl)(phenyl)methyl)-1H-pyrazol-4-yl)-1,4,4a,5,5a,6-hexahydrocyclopropa[f]indazole-3-carboxamide], the Ki was under 0.1 nM.

For the molecule `CC12Cc3c(C(=O)Nc4cnn(Cc5ccccc5)c4)n[nH]c3C1C2` (single isomer, unassigned) [Example 151a, N-(1-benzyl-1H-pyrazol-4-yl)-4a-methyl-4,4a,5,5a-tetrahydro-1H-cyclopropa[4,5]cyclopent a[1,2-c]pyrazole-3-carboxamide], affinity was put at a Ki of 16 nM.

`CC1(C)CCc2c(C(=O)Nc3cnn(C(c4ccccc4)C4CCOCC4)c3)n[nH]c2C1` (single isomer, unassigned) [Example 113a, 6,6-dimethyl-N-(1-(phenyl(tetrahydro-2H-pyran-4-yl)methyl)-1H-pyrazol-4-yl)-4,5,6,7-tetra hydro-1H-indazole-3-carboxamide] returned a Ki of 5 nM.

`CC1(C)CCc2c(C(=O)Nc3cnn(Cc4cccnc4N)c3)n[nH]c2C1` [Example 112, N-(1-((2-aminopyridin-3-yl)methyl)-1H-pyrazol-4-yl)-6,6-dimethyl-4,5,6,7-tetrahydro-1H-indazole-3-carboxamide] came in with a Ki of 6 nM.

Regarding `CC1(C)CCc2c(C(=O)Nc3cnn(C(c4cccc(S(C)(=O)=O)c4)C4CC4)c3)n[nH]c2C1` (single isomer, unassigned) [Example 125b, N-(1-(cyclopropyl(3-(methylsulfonyl)phenyl)methyl)-1H-pyrazol-4-yl)-6,6-dimethyl-4,5,6,7-tetrahydro-1H-indazole-3-carboxamide], the affinity, expressed as Ki, was 10 nM.

Consider `CC1(C)CCc2c(C(=O)Nc3cnn(C(c4ccccc4)C4CCN(S(C)(=O)=O)CC4)c3)n[nH]c2C1` (single isomer, unassigned) [Example 67a, 6,6-dimethyl-N-(1-((1-(methylsulfonyl)piperidin-4-yl)(phenyl)methyl)-1H-pyrazol-4-yl)-4,5,6,7-tetrahydro-1H-indazole-3-carboxamide], for which the Ki was 0.2 nM.

Take `CC[C@@H](c1ccccc1)n1cc(NC(=O)c2n[nH]c3c2CC2CC2C3)cn1` (single isomer, unassigned) [Example 24b]: the Ki stood at 3.5 nM.

In turn, `CC1(C)CCc2c(C(=O)Nc3cnn(C(c4cccc(C#N)c4)C4CCS(=O)(=O)CC4)c3)n[nH]c2C1` (single isomer, unassigned) [Example 110b, N-(1-((3-cyanophenyl)(1,1-dioxidotetrahydro-2H-thiopyran-4-yl)methyl)-1H-pyrazol-4-yl)-6,6-dimethyl-4,5,6,7-tetrahydro-1H-indazole-3-carboxamide] came in with a Ki of 3 nM.

In the case of `CN(C)CCC(c1ccccc1)n1cc(NC(=O)c2n[nH]c3c2CC2CC2(C)C3)cn1` (single isomer, unassigned) [Example 52a, N-(1-(3-(dimethylamino)-1-phenylpropyl)-1H-pyrazol-4-yl)-5a-methyl-1,4,4a,5,5a,6-hexahydrocyclopropa[f]indazole-3-carboxamide], the Ki was determined as 0.2 nM.

`CC(c1cncs1)n1cc(NC(=O)c2n[nH]c3c2CCC(C)(C)C3)cn1` (single isomer, unassigned) [Example 98a, 6,6-dimethyl-N-(1-(1-(thiazol-5-yl)ethyl)-1H-pyrazol-4-yl)-4,5,6,7-tetrahydro-1H-indazole-3-carboxamide] had a Ki of 8 nM.

Regarding `O=C(Nc1cnn(Cc2ccccc2)c1)c1n[nH]c2c1CCC1(CSC1)C2` [Example 118, N-(1-benzyl-1H-pyrazol-4-yl)-1,4,5,7-tetrahydrospiro[indazole-6,3′-thietane]-3-carboxamide], the Ki amounted to 34 nM.

Take `CC1(C)CCc2c(C(=O)Nc3cnn(C(c4nccs4)C4CCSCC4)c3)n[nH]c2C1` (single isomer, unassigned) [Example 85b, 6,6-dimethyl-N-(1-((tetrahydro-2H-thiopyran-4-yl)(thiazol-2-yl)methyl)-1H-pyrazol-4-yl)-4,5,6,7-tetrahydro-1H-indazole-3-carboxamide]: the Ki was 0.9 nM.

For `CC1(C)CCc2c(C(=O)Nc3cnn(C(CCC#N)c4cccnc4)c3)n[nH]c2C1` (single isomer, unassigned) [Example 80a, N-(1-(3-cyano-1-(pyridin-3-yl)propyl)-1H-pyrazol-4-yl)-6,6-dimethyl-4,5,6,7-tetrahydro-1H-indazole-3-carboxamide], the Ki amounted to 2 nM.

Regarding `O=C(Nc1cnn(Cc2ccccc2)c1)c1n[nH]c2c1CC1CC2C1` [Example 32, N-(1-benzyl-1H-pyrazol-4-yl)-4,5,6,7-tetrahydro-1H-5,7-methanoindazole-3-carboxamide], the Ki amounted to 38 nM.
